Test results reported in patent US4117117A, “Tridecapetide having gastrin effect” (Max Planck-Gesellschaft zur Forderung der Wissenschaften, priority 1976, dated 1978).

Tests used:
[1] = test system: secretion activity of the stomach and of the pancreas; test: gastrin activity (stimulation of the secretion activity of the stomach and of the pancreas)
[2] = stability compared to natural minigastrin; conditions: as compared to the natural minigastrin

## L-leucyl-L-glutamyl-L-glutamyl-L-glutamyl-L-glutamyl-L-glutamyl-L-ananyl-L-tyrosyl-glycyl-L-tryptophyl-L-leucyl-L-asparagyl-L-phenylalanineamide [11-leucine-minigastrin]
[1]
  gastrin activity: satisfactory
[1]; just like naturally-occurring gastrin
  stimulation of the secretion activity of the stomach and of the pancreas: causes stimulation
[2]
  stability: improved stability
